From ChEMBL document CHEMBL5360581, “Discovery of a novel dual functional phenylpyrazole-styryl hybrid that induces apoptotic and autophagic cell death in bladder cancer cells” (Eur J Med Chem, 2023)
Calls of active or inactive are those of the source. The rule behind the calls is not given here.

How the values were obtained:
EJ-28 [1] = assay: Induction of autophagy in human EJ-28 cells assessed as upregulation of Atg5 expression at 5 to 12.5 uM incubated for 24 to 72 hrs by Western blot analysis; type: functional, cell-based; settings: dose 5-12.5 µM, time 24-72 hrs
EJ-28 [2] = assay: Antiproliferative activity against human EJ-28 cells assessed as reduction in cell viability at 20 uM measured for 72 hrs by MTT assay; type: functional, cell-based
EJ-28 [3] = assay: Induction of ROS generation in human EJ-28 cells at 1.25 to 10 uM incubated for 48 hrs by DCFDA staining based flow cytometry analysis; type: functional, cell-based; settings: dose 1.25-10 µM
EJ-28 [4] = assay: Induction of apoptosis in human EJ-28 cells assessed as upregulation of Bax expression incubated for 24 hrs by Western blotting analysis; type: functional, cell-based
SW-620 = assay: Cytotoxicity against human SW620 cells assessed inhibition of cell growth incubated for 72 hrs by MTT assay; type: functional, cell-based; settings: SW-620, 72 h
[5] = Toxicity in Zebrafish embryo assessed as adverse phenotype at 12.5 to 50 uM administered for 4 hrs post fertilization and measured after 6 days post fertilization; set-up: species or system Danio rerio; settings: in vivo, 144 h, dose 12.5-50 µM, time 6 day
EJ-28 [6] = assay: Induction of autophagy in human EJ-28 cells assessed as upregulation of Atg5-Atg12 expression at 5 to 12.5 uM incubated for 24 to 72 hrs by Western blot analysis; type: functional, cell-based; settings: dose 5-12.5 µM, time 24-72 hrs
EJ-28 [7] = assay: Induction of autophagy in human EJ-28 cells assessed as increase in green fluorescence intensity at 5 to 12.5 uM incubated for 24 hrs by flow cytometry analysis; type: functional, cell-based; settings: dose 5-12.5 µM
EJ-28 [8] = assay: Induction of apoptosis in human EJ-28 cells at 1.25 to 10 uM by AnnexinV-FITC/propidium iodide staining based flow cytometry analysis; type: functional, cell-based; settings: dose 1.25-10 µM, time 24-72 hrs, TDE = time-dependent effect
EJ-28 [9] = assay: Induction of autophagy in human EJ-28 cells assessed as upregulation of Atg3 expression at 5 to 12.5 uM incubated for 24 to 72 hrs by Western blot analysis; type: functional, cell-based; settings: dose 5-12.5 µM, time 24-72 hrs
EJ-28 [10] = assay: Induction of autophagy in human EJ-28 cells assessed as upregulation of Atg7 expression at 5 to 12.5 uM incubated for 24 to 72 hrs by Western blot analysis; type: functional, cell-based; settings: dose 5-12.5 µM, time 24-72 hrs

With `O=[N+]([O-])c1cccc(/C=C/c2cc(-c3cc(Cl)ccc3O)n(-c3ccccc3)n2)c1` the Activity (EJ-28 [1]) was “Active”, the Activity (EJ-28 [2]) was “Active” and the Activity (EJ-28 [3]) was “inactive”. For the same compound, the Activity (EJ-28 [4]) was “inactive”, the IC50 (SW-620) was 10 µM and the Activity [5] was “Non-Toxic”. For the same compound, the Activity (EJ-28 [6]) was “Active”, the Activity (EJ-28 [7]) was “Active” and the Activity (EJ-28 [8]) was “Tde”. For the same compound, the Activity (EJ-28 [9]) was “inactive” and the Activity (EJ-28 [10]) was “inactive”.
